Test results published in US10604514B2, “6-(5-membered heteroaryl)isoquinolin-3-yl carboxamides and preparation and use thereof” (Samumed, LLC, priority 2017, dated 2020).
Like-named read-outs stand apart in the source and are kept apart here.

How the values were obtained:
[1] = test system: SW480 colon carcinoma cells; assay: Cell viability assay (CellTiter-Glo) in SW480 cells; format: cell-based, human; conditions: for EC50: cell viability, SW480 cells, four days, CellTiter-Glo; for inhibition at 10 µM: SW480, read-out: percent inhibition at 10 μM;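 on all read-outs here: SW480 cells stably carrying an Sp5-luciferase TCF/LEF reporter, luminescent ATP signal as viability measure, DMSO-treated cells as control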
GSK3β kinase = GSK3β kinase (Homo sapiens (Human), UniProt P49841); assay: GSK3β kinase assay (Ser/Thr 09 peptide Z-lyte, FRET); format: biochemical; conditions: method text calls the value IC50;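 further: Coumarin/fluorescein emission ratio converted to percent phosphorylation against unphosphorylated (0%) and phosphorylated (100%) controls, 1 h compound incubation at room temperature, 11-point threefold dilutions from 10 µM, run in duplicate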
Chain of GSK3β kinase (P49841 whole entry): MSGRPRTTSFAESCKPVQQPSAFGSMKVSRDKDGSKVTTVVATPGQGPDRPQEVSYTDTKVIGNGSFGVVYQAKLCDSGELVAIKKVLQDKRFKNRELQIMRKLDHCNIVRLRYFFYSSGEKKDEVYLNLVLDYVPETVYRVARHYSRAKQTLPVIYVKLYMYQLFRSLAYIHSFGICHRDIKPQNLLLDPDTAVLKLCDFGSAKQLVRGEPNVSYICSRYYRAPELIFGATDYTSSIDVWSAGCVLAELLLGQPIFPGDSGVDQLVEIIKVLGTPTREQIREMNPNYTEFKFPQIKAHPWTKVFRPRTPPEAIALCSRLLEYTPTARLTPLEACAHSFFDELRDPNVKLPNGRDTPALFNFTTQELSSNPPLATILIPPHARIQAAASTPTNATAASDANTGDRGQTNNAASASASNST
Description: Representative compounds were screened using the assay procedure for GSK30 kinase activity as described below.
Each compound is dissolved in DMSO as a 10 mM stock and used to prepare compound source plates. Serial dilution (1:3, 11-point dose-response curves from 10 M to 0.0003 μM) and compound transfer was performed using the ECHO 550 (Labcyte, Sunnyvale, Calif.) into 1536-well black-walled round bottom plates (Corning).
This is a non-radioactive assay using fluorescence resonance energy transfer (FRET) between coumarin and fluorescein to detect kinase activity which is represented as ratio of coumarin emission/fluorescein emission.
The mixture is allowed to incubate with the representative compounds for one hour at room temperature. All reactions were performed in duplicate. Unphosphorylated (“0% Control”) and phosphorylated (“100% control”) forms of Ser/Thr 18 serve as control reactions.
After incubation, diluted Development Buffer is added to the reaction and allowed to further incubate for one hour at room temperature.
The percent phosphorylation is then calculated using the following formula: [1−((Em ratio×F100%)−C100%)/((C0%−C100%)+(Em ratio×(F100%−F0%)))].
Dose-response curves are generated and inhibitory concentration (IC50) values are calculated using non-linear regression curve fit in the Dotmatics' Studies Software (Bishops Stortford, UK).

[2] = test system: Tau phosphorylation at Ser396 (pSer396), SH-SY5Y cells; assay: Tau phosphorylation at Ser396 (pSer396) in SH-SY5Y cells, ELISA/western blot; format: cell-based, human; conditions: SH-SY5Y cells, overnight (16-18 h), read-out: pSer396 Tau EC50;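 further: cell lysates probed for reduced Tau pSer396 via ELISA (colorimetric) or western blot (chemiluminescence), both with one shared pSer396 antibody, EC50 for lowering phosphorylation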
[3] = test system: Wnt activity (Sp5-Luc reporter in SW480 colon carcinoma cells); assay: Wnt activity screening assay (Sp5-Luc reporter gene assay); format: cell-based, human; conditions: for EC50: Sp5-Luc reporter, SW480 cells, 36 to 48 hours
How it was run: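 Compounds at 10 points (1:3 steps, top 10 μM, 0.1% DMSO final) were incubated 36 to 48 h at 37° C with stable Sp5-Luc SW480 reporter cells in 1% FBS medium. Luciferase luminescence was then read and expressed relative to DMSO-only cells. Four-parameter variable-slope fitting yielded EC50 values.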

DYRK1A kinase = DYRK1A kinase (Homo sapiens (Human), UniProt Q13627); assay: DYRK1A kinase assay (Ser/Thr 18 peptide Z-lyte, FRET)
[4] = test system: LL29 cells (primary human fibroblasts derived from IPF patients), α-smooth muscle actin; assay: Inhibition of fibrotic process: αSMA in TGF-β1-treated primary human fibroblasts from IPF patients (LL29 cells); format: cell-based; conditions: for EC50: % αSMA-positive LL29 cells, TGF-β1 20 ng/mL, 4 days; for inhibition at 10 µM: read-out: percent inhibition at 10 μM
How it was run: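 Read-out is the percentage of αSMA-positive cells by high-content imaging, excluding SYTOX green-positive dead/apoptotic cells, normalized to TGF-β1-only wells on the same plate. LL29 cells were exposed for 4 days at 37 °C to 20 ng/mL TGF-β1 plus 11-point, 2-fold compound dilutions in 0.1% DMSO.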

IL-6 = IL-6 inhibition in LPS-stimulated human peripheral blood mononuclear cells (HTRF); format: cell-based; conditions: for EC50: IL-6, LPS-stimulated huPBMCs, HTRF; for inhibition at 10 µM: read-out: percent value in parentheses below EC50 >10
How it was run: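 EC50 from a 4-parameter fit of DMSO-normalized HTRF (665/620 nm) IL-6 signal, duplicates. Compound was added to fresh human PBMCs in 1% FBS RPMI for 2 h (top 10 μM, 3-fold, 0.25% DMSO) before 22 h stimulation with LPS at 50 ng/mL, 37 °C.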

[5] = DYRK1A kinase, method text calls the value IC50

Row | Molecule | EC50 ([1]; Homo sapiens, 96 h) [nM] | EC50 (GSK3β kinase) [nM] | EC50 ([2]; Homo sapiens) [nM] | EC50 ([3]; Homo sapiens) [nM] | EC50 (IL-6; Homo sapiens, PBMC) [µM] | EC50 (DYRK1A kinase) [nM] | EC50 [1] [nM] | EC50 [2] [nM] | EC50 [3] [nM] | EC50 (IL-6) [µM] | EC50 (DYRK1A kinase; [5]) [nM] | EC50 ([4]; Homo sapiens, Fibroblast, 96 h) [nM] | inhibition at 10 µM ([1]; Homo sapiens) [%] | inhibition at 10 µM ([4]; Homo sapiens, Fibroblast) [%] | inhibition at 10 µM (IL-6; Homo sapiens, PBMC) [%] | inhibition at 10 µM ([3]; Homo sapiens, SW480, read-out: percent inhibition at 10 μM) [%] | EC50 [4] [nM]
1 | Cn1cc(-c2ccc3cnc(NC(=O)[C@H]4CC[C@H](NCCF)CC4)cc3c2)cn1 [Compound 197, trans-4-((2-Fluoroethyl)amino)-N-(6-(1-methyl-1H-pyrazol-4-yl)isoquinolin-3-yl)cyclohexane-1-carboxamide] | 1270 | 87 | 570 | 1420 | 0.994 | – | – | – | – | – | 3 | 233 | – | – | – | – | –
2 | Cc1nnc(-c2ccc3cnc(NC(=O)[C@H]4CC[C@H](NCCF)CC4)cc3c2)s1 [Compound 200, trans-4-((2-Fluoroethyl)amino)-N-(6-(5-methyl-1,3,4-thiadiazol-2-yl)isoquinolin-3-yl)cyclohexane-1-carboxamide] | 1390 | 14 | 95 | 841 | 3.98 | – | – | – | – | – | 6 | 533 | – | – | – | – | –
3 | trans-N-(6-(2-methyloxazol-5-yl)isoquinolin-3-yl)-4-((propan-2-yl-1,1,1,3,3,3-d6)amino)cyclohexane-1-carboxamide [Compound 141] | – | 50 | – | – | – | – | 1570 | 594 | 2780 | 0.388 | 9 | – | – | – | – | – | 321

Second part, led by results:

Row | EC50 ([1]; Homo sapiens, 96 h) [nM] | EC50 (GSK3β kinase) [nM] | EC50 ([2]; Homo sapiens) [nM] | EC50 ([3]; Homo sapiens) [nM] | EC50 (IL-6; Homo sapiens, PBMC) [µM] | EC50 (DYRK1A kinase) [nM] | EC50 [1] [nM] | EC50 [2] [nM] | EC50 [3] [nM] | EC50 (IL-6) [µM] | Molecule | EC50 (DYRK1A kinase; [5]) [nM] | EC50 ([4]; Homo sapiens, Fibroblast, 96 h) [nM] | inhibition at 10 µM ([1]; Homo sapiens) [%] | inhibition at 10 µM ([4]; Homo sapiens, Fibroblast) [%] | inhibition at 10 µM (IL-6; Homo sapiens, PBMC) [%] | inhibition at 10 µM ([3]; Homo sapiens, SW480, read-out: percent inhibition at 10 μM) [%] | EC50 [4] [nM]
4 | 1640 | 17 | 234 | 982 | 3.86 | – | – | – | – | – | COCCN[C@H]1CC[C@H](C(=O)Nc2cc3cc(-c4nnc(C)s4)ccc3cn2)CC1 [Compound 199, trans-4-((2-Methoxyethyl)amino)-N-(6-(5-methyl-1,3,4-thiadiazol-2-yl)isoquinolin-3-yl)cyclohexane-1-carboxamide] | 4 | 3200 | – | – | – | – | –
5 | > 10000 | 407 | > 10000 | 3850 | > 10 | 2 | – | – | – | – | Cn1cc(-c2ccc3cnc(NC(=O)c4cc[n+]([O-])c(N5CC[N+](C)([O-])CC5)c4)cc3c2)nn1 [Compound 225, 1-methyl-4-(4-((6-(1-methyl-1H-1,2,3-triazol-4-yl)isoquinolin-3-yl)carbamoyl)-1-oxidopyridin-2-yl)piperazine 1-oxide] | – | > 10000 | 28.7 | 24.8 | 6.9 | – | –
6 | > 10000 | 1190 | > 10000 | > 10000 | > 10 | 4 | – | – | – | – | [2H]C([2H])([2H])[N+]1([O-])CCN(c2cc(C(=O)Nc3cc4cc(-c5cn(C)nn5)ccc4cn3)ccn2)CC1 [Compound 226, 1-(Methyl-d3)-4-(4-((6-(1-methyl-1H-1,2,3-triazol-4-yl)isoquinolin-3-yl)carbamoyl)pyridin-2-yl)piperazine 1-oxide] | – | > 10000 | 46.9 | 33.2 | 4.5 | 31.6 | –
